We go through two molecules from US20250360087A1, “COMPOSITIONS COMPRISING LIPID DROPLETS ENCAPSULATED WITHIN POLYSACCHARIDE WALLS AND USES THEREOF” (UNIVERSITY OF SOUTH AUSTRALIA, priority 2022, published 2025).

One data set concerns S. aureus ATCC 25923. As to the kind of experiment: Minimum inhibitory concentration of rifampicin in S. aureus. It is filed as cell-based. As to conditions: Staphylococcus aureus, ATCC25923; 24 h, 37° C., turbidity; read-out: MIC, concentration required to inhibit growth.
For a further data set, the system named is S. aureus biofilms. Put plainly: In vitro biofilm study, crystal violet assay. It is filed as cell-based, Staphylococcus aureus. The protocol: Bacterial suspension was further diluted 1/15 with broth and subsequently added to the wells of a 96-well plate. The outer wells were filled with PBS (200 μL) for hydration purposes and the second right column contained sterile broth (100 μL) to serve as negative control. The plate was wrapped in aluminium foil and incubated on a 3D rotating platform at 70 rpm at 37° C. for 24 h to grow biofilms. After 24 h incubation, turbid biofilms sitting at the bottom of wells could be assessed visually. The broth in the wells of the plate was aspired gently by a vacuum pump without disturbing the biofilms and the wells were washed with 0.9% Saline (100 μL) twice to remove nonadherent bacteria. […] The plate was wrapped in aluminium foil and incubated on a 3D rotating platform at 70 rpm at 37° C. for 24 h. After 24 h of exposure to the formulations, supernatants were removed gently without disturbing the biofilms by a vacuum pump and the wells were washed with 0.9% Saline (100 μL) twice. Biofilms were fixed by oven heating at 60° C. for 1 h. […] The biofilm biomass of S. aureus was quantified by spectrometry at 595 nm in 96 well plate reader.

The subject of the next data set is RAW 264.7 macrophages. As to the kind of experiment: Cellular cytotoxicity, MTT assay. As to conditions: after 1 h incubation. Format: cell-based, Murine. (Tetrazolium dyes change colour on reduction, which living cells bring about.)

Experimental for RAW 264.7 macrophages: 100 μL of cell suspension at a density of 7000 cells per well was seeded in 96-well plate and incubated (37° C., 5% CO2) for 12 h to allow the attachment of cells. After incubation the supernatant was discarded and replaced with 200 μL of particle solution (in DMEM) at various concentrations (ranging from 10 to 100 μg/mL) and incubated for further 24 h. After incubation, the cells were washed with sterile PBS and 10 μL of MTT (3-(4,5-dimethylthiazol-2-yl)-2,5-diphenyltetrazolium bromide) solvent was added to each well prior to incubation for a further 4 h. Afterward, the supernatant was discarded, and the absorbance was read at OD=540 nm using a microplate reader.
Experimental for S. aureus ATCC 25923: Single colonies of S. aureus ATCC 25923 were suspended in 0.9% sterile saline to reach approximately 1×10^8 colony forming units (CFU)/mL (equivalent to an optical density of 0.08-0.12 at 600 nm). The bacterial suspension was further diluted 1/100 with broth. Bacterial suspension was added to 96-wells. […] The 96-well plate was incubated at 37° C. for 24 h. The plates were visually assessed for turbidity indicating growth of bacteria.

`CO[C@H]1/C=C/O[C@@]2(C)Oc3c(C)c(O)c4c(O)c(c(/C=N/N5CCN(C)CC5)c(O)c4c3C2=O)NC(=O)/C(C)=C\C=C\[C@H](C)[C@H](O)[C@@H](C)[C@@H](O)[C@@H](C)[C@H](OC(C)=O)[C@@H]1C` [rifampicin]: the MIC in the data set with S. aureus ATCC 25923 was under 0.0156 µg/mL. The biofilm biomass remaining in the data set on S. aureus biofilms (exposure to 1 μg/mL of rifampicin) turned out to be 34%. The “reduction in biofilm biomass” value with S. aureus biofilms (rifampicin 16 μg/mL, 24 h) was “up to 82%”. Moreover, the biofilm reduction entry in the data set on S. aureus biofilms (rifampicin 1 to 16 μg/mL, 24 h) was “more than 50%”.

Take Triton-X: the “cellular viability (positive control)” value with RAW 264.7 macrophages was “no cellular viability”.
